This passage reports IC50 results from US20060063784A1, “Method of using substituted pyrazolo [1,5-a] pyrimidines” (priority 2004, published 2006).

Where two headings read alike, the source gives them in different places. Where only a bound is given, the exact number is not on record here.

Assay [1] deals with 80S14 (p21-deficient) cells. The assay is described as follows: Cytotoxicity assay using isogenic cell lines: IC50 in 80S14 (p21-deficient) cells, SRB. The assay is classed as cell-based, human. A digest of the protocol: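 80S14 (p21-deficient) cells seeded at 12,000 cells/well overnight, then exposed 5 days at 37 °C to serial dilutions (5 pM–50 μM or 170 pg/ml–10 μg/ml). TCA-fixed, sulforhodamine B-stained, absorbance at 560 nm; IC50 taken from cytotoxicity curves versus untreated controls.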

The subject of the next assay is LoVo Colon cell line. The experiment in a line: Cytotoxicity assay using LoVo colon cell line, SRB. The format is cell-based. The note with it: read-out: Inhibition of LoVo. The gist of the method:
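LoVo cells (4000/well, RPMI 1640 with 10% FBS, 37 °C, 7% CO2) seeded overnight, then exposed 4 days to serial dilutions spanning 5 pM-20 μM or 170 pg/ml-10 μg/ml. Survival by SRB staining; IC50 from curves relative to untreated controls.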

Setting [2] is: Homo sapiens, 120 h, 80S14 (p21-deficient) cells, 5 days, SRB, class symbols, read-out: IC50 for 80S14.
Setting [3] is: Homo sapiens, 96 h, Cellular activity in LoVo cell, 4 days incubation, SRB.
Where [4] appears, read: Homo sapiens, 120 h, 80S14 p21-deficient cells, 5 days incubation, SRB, read-out: IC50 for 80SI4.
Where [5] appears, read: Homo sapiens, 96 h, LoVo colon cells, 4 days incubation, SRB.
[6] abbreviates: Homo sapiens, 80S14, 120 h, read-out: IC50 for 80S14 (uM).

Regarding `O=C(c1cccs1)c1cnn2c(-c3cccc(-c4nnn(Cc5ccccn5)n4)c3)ccnc12` [Example 509, (7-{3-[2-(Pyridin-2-ylmethyl)-2H-tetraazol-5-yl]phenyl}pyrazolo[1,5-a]pyrimidin-3-yl)(thien-2-yl)methanone], the IC50 in assay [1] (setting [2]) was less than 1 µM; in the assay with LoVo Colon cell line (setting [3]) it was 0.1 to 1 µM.

Regarding `CC(C)CC(=O)Nc1cccc(-c2ccnc3c(-c4ccc(Oc5ccccc5)cc4)cnn23)c1` [Example 480, 3-Methyl-N-{3-[3-(4-phenoxyphenyl)pyrazolo[1,5-a]pyrimidin-7-yl]phenyl}butanamide], the IC50 in assay [1] (setting [2]) was in the range of 10 to 50 µM; in the assay on LoVo Colon cell line (setting [3]) it was 1 to 20 µM.

For `CCn1nnc(-c2cccc(-c3ccnc4c(C(=O)c5cccs5)cnn34)c2)n1` [Example 502, {7-[3-(2-Ethyl-2H-tetraazol-5-yl)phenyl]pyrazolo[1,5-a]pyrimidin-3-yl}(thien-2-yl)methanone], the IC50 in assay [1] (setting [2]) was in the range of 1 to 10 µM; in the assay on LoVo Colon cell line (setting [3]), 0.1 to 1 µM.

For `Cc1cc(C)cc(-c2cnn3c(-c4cccc(-c5nnn[nH]5)c4)ccnc23)c1` [Example 491, 3-(3,5-Dimethylphenyl)-7-[3-(1H-tetraazol-5-yl)phenyl]pyrazolo[1,5-a]pyrimidine], the IC50 in assay [1] (setting [2]) fell in the range of 1 to 10 µM; with LoVo Colon cell line (setting [3]), 1 to 20 µM.

`O=C(CC1CC2CCC1C2)Nc1cccc(-c2ccnc3c(C(=O)c4cccs4)cnn23)c1` (stereo not shown) [Example 76, 2-bicyclo[2.2.1]hept-2-yl-N-{3-[3-(thien-2-ylcarbonyl)pyrazolo[1,5-a]pyrimidin-7-yl]phenyl}acetamide]: the figures for the IC50 (in assay [1] (setting [4]); with LoVo Colon cell line (setting [5])) were less than 1 µM and less than 0.1 µM, respectively.

Consider `O=C(Nc1cccc(-c2ccnc3c(C(=O)c4cccs4)cnn23)c1)NC1CCCC1` [Example 162, N-cyclopentyl-N′-{3-[3-(thien-2-ylcarbonyl)pyrazolo[1,5-a]pyrimidin-7-yl]phenyl}urea], for which the IC50 in assay [1] (setting [4]) is less than 1 µM; in the assay with LoVo Colon cell line (setting [5]) it was less than 0.1 µM.

In the case of `CC(CC(=O)O)CC(=O)Nc1cccc(-c2ccnc3c(C(=O)c4cccs4)cnn23)c1` (stereo not shown) [Example 445, 3-Methyl-5-oxo-5-({3-[3-(thien-2-ylcarbonyl)pyrazolo[1,5-a]pyrimidin-7-yl]phenyl}amino)pentanoic acid], the IC50 was 10 to 50 µM in assay [1] (setting [2]) and 1 to 20 µM with LoVo Colon cell line (setting [3]).

As for `CC(C)CC(=O)Nc1cccc(-c2ccnc3c(-c4ccc(CO)cc4)cnn23)c1` [Example 469, N-(3-{3-[4-(Hydroxymethyl)phenyl]pyrazolo[1,5-a]pyrimidin-7-yl}phenyl)-3-methylbutanamide], the results for the IC50 (in assay [1] (setting [2]); in the assay on LoVo Colon cell line (setting [3])) were 10 to 50 µM and 1 to 20 µM, respectively.

With `CC(C)CC(=O)Nc1cccc(-c2ccnc3c(-c4ccc(Cl)cc4)cnn23)c1` [Example 472, N-{3-[3-(4-Chlorophenyl)pyrazolo[1,5-a]pyrimidin-7-yl]phenyl}-3-methylbutanamide], the IC50 in assay [1] (setting [2]) lay in the range of 10 to 50 µM; in the assay on LoVo Colon cell line (setting [3]), 1 to 20 µM.

As to `O=C(Nc1cccc(-c2ccnc3c(C(=O)c4cccs4)cnn23)c1)c1ccc(-n2cccc2)cc1` [Example 383, 4-(1H-pyrrol-1-yl)-N-{3-[3-(thien-2-ylcarbonyl)pyrazolo[1,5-a]pyrimidin-7-yl]phenyl}benzamide], the figures for the IC50 (in assay [1] (setting [2]); in the assay on LoVo Colon cell line (setting [3])) were 1 to 10 µM and 0.1 to 1 µM, respectively.

In the case of `CN(C)Cc1ccc(-c2cccc(-c3ccnc4c(C(=O)c5cccs5)cnn34)c2)cc1` [Example 463, (7-{4′-[(Dimethylamino)methyl]-1,1′-biphenyl-3-yl}pyrazolo[1,5-a]pyrimidin-3-yl)(thien-2-yl)methanone], the IC50 in assay [1] (setting [2]) was less than 1 µM; with LoVo Colon cell line (setting [3]), less than 0.1 µM.

On to `CC(=O)c1cccc(-c2cnn3c(-c4cccc(NC(=O)CC(C)C)c4)ccnc23)c1` [Example 483, N-{3-[3-(3-Acetylphenyl)pyrazolo[1,5-a]pyrimidin-7-yl]phenyl}-3-methylbutanamide], for which the IC50 in assay [1] (setting [2]) is 10 to 50 µM; in the assay with LoVo Colon cell line (setting [3]), 1 to 20 µM.

On to `O=C(CC1CCCCCC1)Nc1cccc(-c2ccnc3c(C(=O)c4cccs4)cnn23)c1` [Example 75, 2-cycloheptyl-N-{3-[3-(thien-2-ylcarbonyl)pyrazolo[1,5-a]pyrimidin-7-yl]phenyl}acetamide], for which the IC50 was less than 1 µM in assay [1] (setting [4]) and less than 0.1 µM in the assay on LoVo Colon cell line (setting [5]).

Take `CCCCC(=O)Nc1cccc(-c2ccnc3c(C(=O)c4cccs4)cnn23)c1` [Example 152, N-3{3-[3-(thien-2-ylcarbonyl)pyrazolo[1,5-a]pyrimidin-7-yl]phenyl}pentanamide]: the IC50 in assay [1] (80S14 p21-deficient cells, 5 days incubation, SRB, read-out: IC50 for 80SI4) is less than 1 µM; in the assay on LoVo Colon cell line (LoVo colon cells, 4 days incubation, SRB) it was less than 0.1 µM.

`CC(C)CC(=O)Nc1cccc(-c2ccnc3c(-c4cccc(C#N)c4)cnn23)c1` [Example 482, N-{3-[3-(3-Cyanophenyl)pyrazolo[1,5-a]pyrimidin-7-yl]phenyl}-3-methylbutanamide]: the results for the IC50 (in assay [1] (setting [2]); in the assay with LoVo Colon cell line (setting [3])) were 10 to 50 µM and 1 to 20 µM, respectively.

Regarding `O=C(c1cccs1)c1cnn2c(-c3cccc(N(C(=O)c4c(Cl)cccc4Cl)C(=O)c4c(Cl)cccc4Cl)c3)ccnc12` [Example 391, 2,6-Dichloro-N-(2,6-dichlorobenzoyl)-N-{3-[3-(thien-2-ylcarbonyl)pyrazolo[1,5-a]pyrimidin-7-yl]phenyl}benzamide], the IC50 in assay [1] (setting [2]) lay within 10 to 50 µM; in the assay with LoVo Colon cell line (setting [3]), 1 to 20 µM.

Take `O=C(Nc1cccc(-c2ccnc3c(C(=O)c4cccs4)cnn23)c1)c1cccnc1` [Example 290, N-{3-[3-(2-Thienylcarbonyl)pyrazolo[1,5-a]pyrimidin-7-yl]phenyl}nicotinamide]: the figures for the IC50 (in assay [1] (setting [2]); in the assay on LoVo Colon cell line (setting [3])) were less than 1 µM and 0.1 to 1 µM, respectively.

Regarding `O=C(c1cccs1)c1cnn2c(-c3cccc(NCc4ccco4)c3)ccnc12` [Example 367, (7-{3-[(2-Furylmethyl)amino]phenyl}pyrazolo[1,5-a]pyrimidin-3-yl)(thien-2-yl)methanone], the IC50 in assay [1] (setting [2]) fell in the range of 1 to 10 µM; in the assay on LoVo Colon cell line (setting [3]), 0.1 to 1 µM.

As for `O=C(Nc1cccc(-c2ccnc3c(C(=O)c4cccs4)cnn23)c1)c1ccccc1` [Example 284, N-{3-[3-(2-Thienylcarbonyl)pyrazolo[1,5-a]pyrimidin-7-yl]phenyl}benzamide], the IC50 in assay [1] (setting [2]) was less than 1 µM; with LoVo Colon cell line (setting [3]), less than 0.1 µM.

Regarding `C=CCOC(=O)Nc1cccc(-c2ccnc3c(C(=O)c4cccs4)cnn23)c1` [Example 14, allyl 3-[3-(thien-2-ylcarbonyl)pyrazolo[1,5-a]pyrimidin-7-yl]phenylcarbamate], the IC50 is less than 1 µM in assay [1] (Homo sapiens, 80S14, 120 h, read-out: IC50 for 80SI4 (uM)) and less than 0.1 µM with LoVo Colon cell line (Homo sapiens, LoVo, 96 h).

For `C=CCOC(=O)Nc1cccc(-c2cc(C)nc3c(C(=O)c4cccs4)cnn23)c1` [Example 196, allyl 3-[5-methyl-3-(thien-2-ylcarbonyl)pyrazolo[1,5-a]pyrimidin-7-yl]phenylcarbamate], the IC50 was less than 1 µM in assay [1] (setting [4]) and 0.1 to 1 µM in the assay with LoVo Colon cell line (setting [5]).

For `O=C(c1cccs1)c1cnn2c(-c3cccc(-c4nnn(Cc5cccnc5)n4)c3)ccnc12` [Example 503, (7-{3-[2-(Pyridin-3-ylmethyl)-2H-tetraazol-5-yl]phenyl}pyrazolo[1,5-a]pyrimidin-3-yl)(thien-2-yl)methanone], the IC50 in assay [1] (setting [2]) is less than 1 µM; in the assay on LoVo Colon cell line (setting [3]), 0.1 to 1 µM.

As for `O=C(CCCCl)Nc1cccc(-c2ccnc3c(C(=O)c4cccs4)cnn23)c1` [Example 346, 4-Chloro-N-{3-[3-(thien-2-ylcarbonyl)pyrazolo[1,5-a]pyrimidin-7-yl]phenyl}butanamide], the IC50 in assay [1] (setting [2]) is 1 to 10 µM; in the assay with LoVo Colon cell line (setting [3]), 0.1 to 1 µM.

Turning to `Cc1cc(C)cc(-c2cnn3c(-c4cccc(NC(=O)CC(C)C)c4)ccnc23)c1` [Example 476, N-{3-[3-(3,5-Dimethylphenyl)pyrazolo[1,5-a]pyrimidin-7-yl]phenyl}-3-methylbutanamide], the results for the IC50 (in assay [1] (setting [2]); in the assay with LoVo Colon cell line (setting [3])) were less than 1 µM and less than 0.1 µM, respectively.

Take `Cc1cc(-c2cccc(NC(=O)NC(C)C)c2)n2ncc(C(=O)c3cccs3)c2n1` [Example 207, N-isopropyl-N′-{3-[5-methyl-3-(thien-2-ylcarbonyl)pyrazolo[1,5-a]pyrimidin-7-yl]phenyl}urea]: the IC50 was less than 1 µM in assay [1] (setting [4]) and 0.1 to 1 µM in the assay with LoVo Colon cell line (setting [5]).

`O=C(c1cccs1)c1cnn2c(-c3cccc(NCc4ccc(Cl)cc4)c3)ccnc12` [Example 366, (7-{3-[(4-Chlorobenzyl)amino]phenyl}pyrazolo[1,5-a]pyrimidin-3-yl)(thien-2-yl)methanone]: the results for the IC50 (in assay [1] (setting [2]); with LoVo Colon cell line (setting [3])) were 10 to 50 µM and 1 to 20 µM, respectively.

As to `O=C(Nc1cccc(-c2ccnc3c(C(=O)c4cccs4)cnn23)c1)OC1CCCC1` [Example 171, cyclopentyl 3-[3-(thien-2-ylcarbonyl)pyrazolo[1,5-a]pyrimidin-7-yl]phenylcarbamate], the IC50 is less than 1 µM in assay [1] (setting [4]) and less than 0.1 µM in the assay with LoVo Colon cell line (setting [5]).

In the case of `O=C(Nc1cc(-c2ccnc3c(C(=O)c4cccs4)cnn23)ccc1F)OCCCl` [Example 381, 2-Chloroethyl 2-fluoro-5-[3-(thien-2-ylcarbonyl)pyrazolo[1,5-a]pyrimidin-7-yl]phenylcarbamate], the IC50 in assay [1] (setting [6]) was less than 1 µM; in the assay on LoVo Colon cell line (Homo sapiens, LoVo, 96 h) it was less than 0.1 µM.

Consider `CC(C)OC(=O)Nc1cc(-c2ccnc3c(C(=O)c4cccs4)cnn23)ccc1F` [Example 347, Isopropyl 2-fluoro-5-[3-(thien-2-ylcarbonyl)pyrazolo[1,5-a]pyrimidin-7-yl]phenylcarbamate], for which the IC50 in assay [1] (setting [6]) is less than 1 µM; in the assay on LoVo Colon cell line (Homo sapiens, LoVo, 96 h), less than 0.1 µM.
